Source: publication PMC6720883, “In Vitro Inhibitory Effects of APINACA on Human Major Cytochrome P450, UDP-Glucuronosyltransferase Enzymes, and Drug Transporters” (Molecules, 2019)
Where two headings read alike, the source gives them in different places.

Key:
UGT1A1 = biological target: T1, UGT1A1 (Homo sapiens, UniProt P22309); assay: biochemical; assay type: in vitro ADME
T1 construct: […]; tissue Corning Life Sciences
T1 sequence (P22309 26-533): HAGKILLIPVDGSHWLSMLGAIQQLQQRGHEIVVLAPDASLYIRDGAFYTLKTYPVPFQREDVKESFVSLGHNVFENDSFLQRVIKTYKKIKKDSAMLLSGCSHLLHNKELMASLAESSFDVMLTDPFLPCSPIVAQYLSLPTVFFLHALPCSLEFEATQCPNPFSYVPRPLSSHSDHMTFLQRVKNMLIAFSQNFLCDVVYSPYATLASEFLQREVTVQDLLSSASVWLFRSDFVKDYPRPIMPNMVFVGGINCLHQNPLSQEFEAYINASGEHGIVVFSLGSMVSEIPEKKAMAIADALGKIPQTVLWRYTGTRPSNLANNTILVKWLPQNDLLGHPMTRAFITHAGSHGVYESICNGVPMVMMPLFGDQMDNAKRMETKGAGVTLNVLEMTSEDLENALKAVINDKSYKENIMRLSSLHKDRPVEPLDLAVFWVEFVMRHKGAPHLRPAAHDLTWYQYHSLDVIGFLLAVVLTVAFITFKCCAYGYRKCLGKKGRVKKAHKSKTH
Description: (§1) 12.5 (Systat Software, Inc.; San Jose, CA, USA). […] 1.1 (Systat Software, Inc.).

CYP2B6 = CYP2B6 (Homo sapiens, UniProt P20813); assay: Inhibition of CYP2B6-mediated bupropion hydroxylase in ultrapooled human liver microsomes; assay type: in vitro ADME
Sequence of CYP2B6 (P20813 whole entry): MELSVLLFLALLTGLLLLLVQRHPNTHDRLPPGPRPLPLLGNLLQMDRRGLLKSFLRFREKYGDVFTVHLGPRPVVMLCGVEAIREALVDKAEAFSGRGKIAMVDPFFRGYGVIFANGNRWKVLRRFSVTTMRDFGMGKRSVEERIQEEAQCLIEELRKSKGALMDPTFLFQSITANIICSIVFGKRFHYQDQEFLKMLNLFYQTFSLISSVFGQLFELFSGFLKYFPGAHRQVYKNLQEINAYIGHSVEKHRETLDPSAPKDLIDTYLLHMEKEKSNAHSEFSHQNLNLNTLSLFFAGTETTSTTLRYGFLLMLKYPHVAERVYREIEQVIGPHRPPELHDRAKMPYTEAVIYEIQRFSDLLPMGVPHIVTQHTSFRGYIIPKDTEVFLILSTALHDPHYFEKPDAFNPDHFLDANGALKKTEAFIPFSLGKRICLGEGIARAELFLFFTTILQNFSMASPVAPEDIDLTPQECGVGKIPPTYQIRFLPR
Protocol: After 3 min of preincubation at 37 °C, the reaction mixtures were incubated with the addition of NADPH in a shaking water bath for 15 min at 37 °C. The reaction was stopped by adding 100 μL of ice cold d9-1′-hydroxybufuralol (internal standard) in methanol.
Next, the reaction mixtures were incubated with a seven-CYP probe substrate cocktail or bupropion for 15 min at 37 °C.
The LC-MS/MS system was comprised of an Agilent 6495 triple quadrupole mass spectrometer coupled with an Agilent 1290 Infinity system (Agilent Technologies, CA, USA). The column and autosampler temperatures were 40 °C and 4 °C, respectively.
The data were processed using Mass Hunter software (Agilent Technologies).
as §1

P-glycoprotein (P-gp) = P-glycoprotein (P-gp) (Homo sapiens, UniProt P08183); assay: B to A transport of [3-H]digoxin in LLC-PK1-MDR1 cells
Sequence of P-glycoprotein (P-gp) (P08183 whole entry): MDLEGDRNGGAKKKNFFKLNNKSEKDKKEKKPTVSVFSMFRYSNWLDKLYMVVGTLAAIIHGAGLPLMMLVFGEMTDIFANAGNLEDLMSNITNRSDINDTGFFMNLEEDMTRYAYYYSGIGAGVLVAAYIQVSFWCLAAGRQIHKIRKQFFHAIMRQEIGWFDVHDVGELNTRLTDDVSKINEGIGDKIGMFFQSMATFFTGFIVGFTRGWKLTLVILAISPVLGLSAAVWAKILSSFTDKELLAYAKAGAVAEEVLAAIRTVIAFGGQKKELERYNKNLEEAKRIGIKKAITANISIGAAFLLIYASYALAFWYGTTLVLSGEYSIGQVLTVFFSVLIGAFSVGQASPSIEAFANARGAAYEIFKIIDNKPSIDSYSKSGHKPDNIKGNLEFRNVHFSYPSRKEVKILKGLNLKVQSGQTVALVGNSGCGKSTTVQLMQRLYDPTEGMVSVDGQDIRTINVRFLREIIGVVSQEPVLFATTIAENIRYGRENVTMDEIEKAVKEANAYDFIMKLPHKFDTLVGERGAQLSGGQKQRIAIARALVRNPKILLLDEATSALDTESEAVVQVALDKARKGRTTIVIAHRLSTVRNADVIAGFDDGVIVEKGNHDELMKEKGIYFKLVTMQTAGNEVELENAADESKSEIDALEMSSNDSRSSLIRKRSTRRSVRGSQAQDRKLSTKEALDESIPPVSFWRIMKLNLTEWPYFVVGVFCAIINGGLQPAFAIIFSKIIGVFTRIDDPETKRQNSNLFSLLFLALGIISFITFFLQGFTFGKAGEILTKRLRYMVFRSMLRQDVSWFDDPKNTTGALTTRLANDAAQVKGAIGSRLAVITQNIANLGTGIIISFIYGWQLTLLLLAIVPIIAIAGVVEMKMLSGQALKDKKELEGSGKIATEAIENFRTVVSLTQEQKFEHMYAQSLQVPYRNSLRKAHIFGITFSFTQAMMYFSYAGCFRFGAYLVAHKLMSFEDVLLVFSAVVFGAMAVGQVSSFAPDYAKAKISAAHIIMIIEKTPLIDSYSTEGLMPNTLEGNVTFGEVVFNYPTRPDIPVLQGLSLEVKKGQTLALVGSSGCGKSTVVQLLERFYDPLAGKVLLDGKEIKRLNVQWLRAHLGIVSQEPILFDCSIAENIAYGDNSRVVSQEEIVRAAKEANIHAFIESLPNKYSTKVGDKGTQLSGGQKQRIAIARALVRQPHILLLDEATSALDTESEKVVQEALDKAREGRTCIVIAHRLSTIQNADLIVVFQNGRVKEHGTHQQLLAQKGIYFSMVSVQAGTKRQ
Protocol: The cells were seeded onto filter membranes at a density of 2 × 10^5 cells/well for 5 days with TEER values over 450 Ω·cm^2. The B to A transport of 0.1 μM [3-H]digoxin in LLC-PK1-MDR1 cells was measured by adding 1.5 mL of HBSS containing APINACA (final concentrations of 0–100 μM) on the basal side and by adding 0.5 mL of HBSS without APINACA on the apical side of the insert using protocols identical to those described above.
1.1 (Systat Software, Inc.).

OATP1B1 = biological target: T2, OATP1B1 (Homo sapiens, UniProt Q9Y6L6); assay: Uptake of [3-H]estrone-3-sulfate in HEK293-OATP1B1 cells; assay type: in vitro ADME
T2 construct: host or cells: HEK293 (transient overexpression)
T2 sequence (Q9Y6L6 1-691): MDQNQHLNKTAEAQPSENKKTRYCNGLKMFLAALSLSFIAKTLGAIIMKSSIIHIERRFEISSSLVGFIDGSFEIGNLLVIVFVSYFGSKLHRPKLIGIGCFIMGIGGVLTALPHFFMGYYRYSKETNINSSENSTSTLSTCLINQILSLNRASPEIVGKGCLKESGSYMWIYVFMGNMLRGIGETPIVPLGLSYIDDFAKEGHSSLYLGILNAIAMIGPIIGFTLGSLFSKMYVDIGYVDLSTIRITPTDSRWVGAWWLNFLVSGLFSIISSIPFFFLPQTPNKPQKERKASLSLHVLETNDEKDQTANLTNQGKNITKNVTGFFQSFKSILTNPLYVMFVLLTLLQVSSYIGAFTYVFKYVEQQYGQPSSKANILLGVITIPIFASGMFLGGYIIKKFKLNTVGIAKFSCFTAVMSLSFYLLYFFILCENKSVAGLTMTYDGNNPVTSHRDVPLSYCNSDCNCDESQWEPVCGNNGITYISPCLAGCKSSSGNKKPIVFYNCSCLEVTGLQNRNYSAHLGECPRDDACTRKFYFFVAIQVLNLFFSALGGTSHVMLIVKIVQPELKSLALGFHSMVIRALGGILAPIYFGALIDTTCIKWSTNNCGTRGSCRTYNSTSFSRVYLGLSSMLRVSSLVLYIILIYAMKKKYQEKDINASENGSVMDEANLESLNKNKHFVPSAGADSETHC
Protocol: To examine the effects of APINACA and typical inhibitors on transporter activity, the uptake of a probe substrate into HEK293 cells overexpressing the respective solute carrier transporters was measured in the presence of APINACA (final concentrations of 0–250 μM) or typical inhibitors for 5 min. The concentrations and probe substrates were selected as follows: 0.1 μM [3-H]MPP^+ (for OCT1 and OCT2), 0.1 μM [3-H]PAH (for OAT1), 0.1 μM [3-H]ES (for OAT3 and OATP1B1), and 0.1 μM [3-H]EG (for OATP1B3).
as §1

UGT1A9 = biological target: T3, UGT1A9 (Homo sapiens, UniProt O60656); assay: Enzyme kinetic analysis of UGT1A9 inhibition (Dixon plot) in human liver microsomes; assay type: in vitro ADME; set-up: […]; tissue Corning Life Sciences
T3 sequence (O60656 26-530): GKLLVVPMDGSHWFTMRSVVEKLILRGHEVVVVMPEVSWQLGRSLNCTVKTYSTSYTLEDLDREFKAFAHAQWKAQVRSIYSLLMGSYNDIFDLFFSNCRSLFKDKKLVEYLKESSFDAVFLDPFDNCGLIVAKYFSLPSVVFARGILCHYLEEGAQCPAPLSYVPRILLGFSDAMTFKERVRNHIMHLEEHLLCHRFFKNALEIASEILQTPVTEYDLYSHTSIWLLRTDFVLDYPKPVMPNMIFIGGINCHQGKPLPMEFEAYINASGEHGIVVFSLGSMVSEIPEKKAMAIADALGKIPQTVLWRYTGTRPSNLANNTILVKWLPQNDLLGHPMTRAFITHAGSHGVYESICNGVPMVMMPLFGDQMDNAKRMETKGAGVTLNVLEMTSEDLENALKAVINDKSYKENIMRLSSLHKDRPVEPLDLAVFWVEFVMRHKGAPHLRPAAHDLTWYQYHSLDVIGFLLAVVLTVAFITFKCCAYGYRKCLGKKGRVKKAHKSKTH
Protocol: The reaction was stopped by adding 100 μL of ice cold acetonitrile containing propofol glucuronide (internal standard), and the mixtures were centrifuged at 13,000× g for 4 min.
as §1

## CCCCCn1nc(C(=O)NC23CC4CC(CC(C4)C2)C3)c2ccccc21 [APINACA, N-(1-adamantyl)-1-pentyl-1H-indazole-3-carboxamide]
UGT1A1
  IC50: > 100 µM
UGT1A1; read-out: IC50 UGT1A1 SN-38 glucuronidation, with 30-min preincubation, pooled human liver microsomes, 30-min preincubation with UDPGA (○)
  IC50: > 100 µM
CYP2B6
  IC50: > 100 µM
CYP2B6; read-out: IC50 (μM) With Preincubation, CYP2B6 bupropion hydroxylase, ultrapooled human liver microsomes, 30-min preincubation with NADPH
  IC50: > 100 µM
P-glycoprotein (P-gp)
  IC50: > 100 µM
OATP1B1
  IC50: > 250 µM
UGT1A9
  Ki: 5.9 µM
UGT1A9; human liver microsomes, enzyme kinetics study
  mode of inhibition of UGT1A9-catalyzed mycophenolic acid glucuronidation: noncompetitively inhibited
